{"source": "PubChem BioAssay AID1963831", "about": "(Molecular Pharmacology Branch, DTP, NCI, 2024)", "tested_on": "889142-216-R-J1-PDC complex spheroid viability", "experiment": "Anticancer human tumor 889142-216-R-J1-PDC patient-derived bladder carcinoma cell line growth inhibition [POLQ]", "conditions": "for pIC50: curve of first compound; for viability, T/C: stronger effect = lower value", "outline": "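PDC + HUVEC + MSC complex spheroids; POLQ inhibitors ± partner drugs; top conc. at/near clinical Cmax, else 10 microM (SN-38 1 microM), half-log dilutions; 37 degrees C, 5% CO2.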", "key": {"[1]": {"conditions": "second compound 0.0316 µM, first compound 0.0316 µM"}, "[2]": {"conditions": "second compound 0.0316 µM, first compound 0.1 µM"}, "[3]": {"conditions": "second compound 0.0316 µM, first compound 0.316 µM"}, "[4]": {"conditions": "second compound 0.0316 µM, first compound 1 µM"}, "[5]": {"conditions": "second compound 0.0316 µM, first compound 3.16 µM"}, "[6]": {"conditions": "second compound 0.0316 µM, first compound 10 µM"}, "[7]": {"conditions": "second compound 0.1 µM, first compound 0.0316 µM"}, "[8]": {"conditions": "second compound 0.1 µM, first compound 0.1 µM"}, "[9]": {"conditions": "second compound 0.1 µM, first compound 0.316 µM"}, "[10]": {"conditions": "second compound 0.1 µM, first compound 1 µM"}, "[11]": {"conditions": "second compound 0.1 µM, first compound 3.16 µM"}, "[12]": {"conditions": "second compound 0.1 µM, first compound 10 µM"}, "[13]": {"conditions": "second compound 0.316 µM, first compound 0.0316 µM"}, "[14]": {"conditions": "second compound 0.316 µM, first compound 0.1 µM"}, "[15]": {"conditions": "second compound 0.316 µM, first compound 0.316 µM"}, "[16]": {"conditions": "second compound 0.316 µM, first compound 1 µM"}, "[17]": {"conditions": "second compound 0.316 µM, first compound 3.16 µM"}, "[18]": {"conditions": "second compound 0.316 µM, first compound 10 µM"}, "[19]": {"conditions": "second compound 1 µM, first compound 0.0316 µM"}, "[20]": {"conditions": "second compound 1 µM, first compound 0.1 µM"}, "[21]": {"conditions": "second compound 1 µM, first compound 0.316 µM"}, "[22]": {"conditions": "second compound 1 µM, first compound 1 µM"}, "[23]": {"conditions": "second compound 1 µM, first compound 3.16 µM"}, "[24]": {"conditions": "second compound 1 µM, first compound 10 µM"}, "[25]": {"conditions": "second compound 3.16 µM, first compound 0.0316 µM"}, "[26]": {"conditions": "second compound 3.16 µM, first compound 0.1 µM"}, "[27]": {"conditions": "second compound 3.16 µM, first compound 0.316 µM"}, "[28]": {"conditions": "second compound 3.16 µM, first compound 1 µM"}, "[29]": {"conditions": "second compound 3.16 µM, first compound 3.16 µM"}, "[30]": {"conditions": "second compound 3.16 µM, first compound 10 µM"}, "[31]": {"conditions": "second compound 10 µM, first compound 0.0316 µM"}, "[32]": {"conditions": "second compound 10 µM, first compound 0.1 µM"}, "[33]": {"conditions": "second compound 10 µM, first compound 0.316 µM"}, "[34]": {"conditions": "second compound 10 µM, first compound 1 µM"}, "[35]": {"conditions": "second compound 10 µM, first compound 3.16 µM"}, "[36]": {"conditions": "second compound 10 µM, first compound 10 µM"}}, "note": "pIC50: −log10 of the molar value.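 Note: spheroids exposed to compounds for seven days.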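 Throughout, for viability, T/C: 100% = DMSO vehicle control viability.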"}
{"smiles": "CCc1cc2c(N3CCc4c(cc(Cn5ccnc5)cc4-c4cn(C)nc4C(F)(F)F)C3=O)cc(C)nc2c(OC)n1", "note": "+ Nc1ccc(C#CCN(C(=O)Cc2ncc(C(F)(F)F)cc2C(F)(F)F)c2ccc(F)cc2)nn1", "values": [{"measurement": "pIC50", "setting": "second compound 0.0316 µM", "result": "< 5.00"}, {"measurement": "pIC50", "setting": "second compound 0.1 µM", "result": "< 5.00"}, {"measurement": "pIC50", "setting": "second compound 0.316 µM", "result": "< 5.00"}, {"measurement": "pIC50", "setting": "second compound 1 µM", "result": "< 5.00"}, {"measurement": "pIC50", "setting": "second compound 3.16 µM", "result": "< 5.00"}, {"measurement": "pIC50", "setting": "second compound 10 µM", "result": "< 5.00"}, {"measurement": "viability, T/C", "setting": "[1]", "result": 98.2, "unit": "%"}, {"measurement": "viability, T/C", "setting": "[2]", "result": 96.9, "unit": "%"}, {"measurement": "viability, T/C", "setting": "[3]", "result": 109, "unit": "%"}, {"measurement": "viability, T/C", "setting": "[4]", "result": 126, "unit": "%"}, {"measurement": "viability, T/C", "setting": "[5]", "result": 108, "unit": "%"}, {"measurement": "viability, T/C", "setting": "[6]", "result": 80.2, "unit": "%"}, {"measurement": "viability, T/C", "setting": "[7]", "result": 123, "unit": "%"}, {"measurement": "viability, T/C", "setting": "[8]", "result": 97.6, "unit": "%"}, {"measurement": "viability, T/C", "setting": "[9]", "result": 126, "unit": "%"}, {"measurement": "viability, T/C", "setting": "[10]", "result": 133, "unit": "%"}, {"measurement": "viability, T/C", "setting": "[11]", "result": 113, "unit": "%"}, {"measurement": "viability, T/C", "setting": "[12]", "result": 79.5, "unit": "%"}, {"measurement": "viability, T/C", "setting": "[13]", "result": 104, "unit": "%"}, {"measurement": "viability, T/C", "setting": "[14]", "result": 119, "unit": "%"}, {"measurement": "viability, T/C", "setting": "[15]", "result": 123, "unit": "%"}, {"measurement": "viability, T/C", "setting": "[16]", "result": 135, "unit": "%"}, {"measurement": "viability, T/C", "setting": "[17]", "result": 126, "unit": "%"}, {"measurement": "viability, T/C", "setting": "[18]", "result": 75.2, "unit": "%"}, {"measurement": "viability, T/C", "setting": "[19]", "result": 125, "unit": "%"}, {"measurement": "viability, T/C", "setting": "[20]", "result": 116, "unit": "%"}, {"measurement": "viability, T/C", "setting": "[21]", "result": 132, "unit": "%"}, {"measurement": "viability, T/C", "setting": "[22]", "result": 135, "unit": "%"}, {"measurement": "viability, T/C", "setting": "[23]", "result": 109, "unit": "%"}, {"measurement": "viability, T/C", "setting": "[24]", "result": 67.9, "unit": "%"}, {"measurement": "viability, T/C", "setting": "[25]", "result": 109, "unit": "%"}, {"measurement": "viability, T/C", "setting": "[26]", "result": 125, "unit": "%"}, {"measurement": "viability, T/C", "setting": "[27]", "result": 119, "unit": "%"}, {"measurement": "viability, T/C", "setting": "[28]", "result": 114, "unit": "%"}, {"measurement": "viability, T/C", "setting": "[29]", "result": 116, "unit": "%"}, {"measurement": "viability, T/C", "setting": "[30]", "result": 97.3, "unit": "%"}, {"measurement": "viability, T/C", "setting": "[31]", "result": 97.8, "unit": "%"}, {"measurement": "viability, T/C", "setting": "[32]", "result": 126, "unit": "%"}, {"measurement": "viability, T/C", "setting": "[33]", "result": 112, "unit": "%"}, {"measurement": "viability, T/C", "setting": "[34]", "result": 124, "unit": "%"}, {"measurement": "viability, T/C", "setting": "[35]", "result": 104, "unit": "%"}, {"measurement": "viability, T/C", "setting": "[36]", "result": 93.4, "unit": "%"}]}
{"smiles": "O=C(c1cc(Cc2n[nH]c(=O)c3ccccc23)ccc1F)N1CCN(C(=O)C2CC2)CC1", "note": "+ Cc1cccc(N(C)C(=O)C2C(O)CCN2c2nc(C)cc(C(F)(F)F)c2C#N)c1", "values": [{"measurement": "pIC50", "setting": "second compound 0.0316 µM", "result": "< 5.00"}, {"measurement": "pIC50", "setting": "second compound 0.1 µM", "result": "< 5.00"}, {"measurement": "pIC50", "setting": "second compound 0.316 µM", "result": "< 5.00"}, {"measurement": "pIC50", "setting": "second compound 1 µM", "result": "< 5.00"}, {"measurement": "pIC50", "setting": "second compound 3.16 µM", "result": "< 5.00"}, {"measurement": "pIC50", "setting": "second compound 10 µM", "result": "< 5.00"}, {"measurement": "viability, T/C", "setting": "[1]", "result": 103, "unit": "%"}, {"measurement": "viability, T/C", "setting": "[2]", "result": 99.7, "unit": "%"}, {"measurement": "viability, T/C", "setting": "[3]", "result": 108, "unit": "%"}, {"measurement": "viability, T/C", "setting": "[4]", "result": 83.3, "unit": "%"}, {"measurement": "viability, T/C", "setting": "[5]", "result": 70.1, "unit": "%"}, {"measurement": "viability, T/C", "setting": "[6]", "result": 65, "unit": "%"}, {"measurement": "viability, T/C", "setting": "[7]", "result": 106, "unit": "%"}, {"measurement": "viability, T/C", "setting": "[8]", "result": 116, "unit": "%"}, {"measurement": "viability, T/C", "setting": "[9]", "result": 95, "unit": "%"}, {"measurement": "viability, T/C", "setting": "[10]", "result": 98.2, "unit": "%"}, {"measurement": "viability, T/C", "setting": "[11]", "result": 87.9, "unit": "%"}, {"measurement": "viability, T/C", "setting": "[12]", "result": 63.6, "unit": "%"}, {"measurement": "viability, T/C", "setting": "[13]", "result": 92.2, "unit": "%"}, {"measurement": "viability, T/C", "setting": "[14]", "result": 98.8, "unit": "%"}, {"measurement": "viability, T/C", "setting": "[15]", "result": 97.5, "unit": "%"}, {"measurement": "viability, T/C", "setting": "[16]", "result": 80.8, "unit": "%"}, {"measurement": "viability, T/C", "setting": "[17]", "result": 72, "unit": "%"}, {"measurement": "viability, T/C", "setting": "[18]", "result": 64.3, "unit": "%"}, {"measurement": "viability, T/C", "setting": "[19]", "result": 105, "unit": "%"}, {"measurement": "viability, T/C", "setting": "[20]", "result": 98.5, "unit": "%"}, {"measurement": "viability, T/C", "setting": "[21]", "result": 84.7, "unit": "%"}, {"measurement": "viability, T/C", "setting": "[22]", "result": 77.3, "unit": "%"}, {"measurement": "viability, T/C", "setting": "[23]", "result": 88.5, "unit": "%"}, {"measurement": "viability, T/C", "setting": "[24]", "result": 68.5, "unit": "%"}, {"measurement": "viability, T/C", "setting": "[25]", "result": 91.3, "unit": "%"}, {"measurement": "viability, T/C", "setting": "[26]", "result": 91.7, "unit": "%"}, {"measurement": "viability, T/C", "setting": "[27]", "result": 88.8, "unit": "%"}, {"measurement": "viability, T/C", "setting": "[28]", "result": 81.5, "unit": "%"}, {"measurement": "viability, T/C", "setting": "[29]", "result": 73.7, "unit": "%"}, {"measurement": "viability, T/C", "setting": "[30]", "result": 52.9, "unit": "%"}, {"measurement": "viability, T/C", "setting": "[31]", "result": 81.8, "unit": "%"}, {"measurement": "viability, T/C", "setting": "[32]", "result": 81.3, "unit": "%"}, {"measurement": "viability, T/C", "setting": "[33]", "result": 68.7, "unit": "%"}, {"measurement": "viability, T/C", "setting": "[34]", "result": 85.8, "unit": "%"}, {"measurement": "viability, T/C", "setting": "[35]", "result": 70.1, "unit": "%"}, {"measurement": "viability, T/C", "setting": "[36]", "result": 52.4, "unit": "%"}]}
